Measured values published in US20240150839A1, “METHODS FOR PREDICTING RESPONSIVENESS OF PROSTATE CANCER PATIENTS TO PARP INHIBITORS” (Memorial Sloan Kettering Cancer Center, priority 2019, published 2024).

Legend:
Format in all cases: cell-based, human
[1] = system: BRCA2-null LNCaP cells; assay: MTT cell growth of BRCA2 CRISPR-edited LNCaP cells with PARP inhibitors or cisplatin; details: BRCA2 knockout LNCaP vs control gRNA (scr) cells; complete medium, 6 days (FIG. 7C)
Description: Cells infected with scrambled (scr) gRNA were used as control. Equal amount of proteins was loaded in WedgeWell 6% gel and western blot was performed. ˜400 kDa BRCA2 band is indicated by arrow. GAPDH served as loading controls for western blot and qPCR. […] Genotypes are detected by PCR amplification followed by being treated with T7 endonuclease. Wt and mutant BRCA2 are indicated by red and green arrows, respectively. […] Equivalent volume of DMSO was used as placebo treatment. Cell growth was measured by MTT assay (see Example 1); SD, P-values determined by Student's t-test. *P<0.05, **P<0.01, ***P<0.001. FIGS. 7D-7E show the growth curve (FIG. 7D) and a bar graph (FIG. 7E) representing the cell growth of LNCaP BRCA2 CRISPR-edited and non-targeting control gRNA (scr) infected cells in complete medium supplemented with enzalutamide (ENZ; indicated concentration) for 7 days or charcoal-stripped medium (CSS) for 5 days, respectively. Equivalent volume of DMSO was used as placebo treatment. Cell growth was measured by crystal violet staining assay (see Example 1) (±SD); P-values determined by Student's t-test. […] Equivalent volume of DMSO was used as placebo treatment. Cell growth was measured by MTT assay (see Example 1) (±SD); P-values determined by Student's t-test. […] Total RNA was isolated, and BRCA2 mRNA was analyzed by qPCR. […] Cell growth was measured by MTT assay; SD, P-values determined by Student's t-test.
To generate BRCA2 knockout RWPE1 cells, BRCA2 gRNA2 was cloned into LentiCRISPRv2-GFP backbone which constitutively expresses Cas9 and GFP. Lentiviral infected cells were selected by FACS sorting for GFP positive cells (twice) and analyzed by western blot. […] Loss of BRCA2 in the pooled populations of LNCaP cells was analyzed by western blot using BRCA2-specific antibodies and this pooled population of cells was used for the following experiments. […]
Cell Proliferation Assay by MTT, BrdU and Crystal Violet. […] MTT crystals were dissolved in isopropanol and absorbance was measured in a BioTek plate reader at […] and represented graphically.

[2] = system: MSK-PCa3 organoid; assay: MTT growth of mCRPC organoids with PARPi; details: compared to benign organoid; 3 days (FIG. 6E)
Excerpt: (§1) Near-diploid benign prostate organoid is used as a control. […] GAPDH served as the loading control. […] The graphs show cell growth measured by MTT assay (±SD); P-trends determined by 2-way ANOVA.
(§2) Cell Culture. Human prostate cancer cells LNCaP, 22RV1, DU145, PC3, and VCaP were obtained from ATCC (Manassas, VA). LNCaP-C42 cells were obtained from VitroMed (Burlington, NC). The LNCaP-Abl cell line, E006AA-T cells, PC3M LAPC4 cell line were obtained. These cells were maintained in 10% FBS (LNCaP, LNCaP-C42, LAPC4, VCaP, 22RV1, DU145, PC3, PC3M, and E006AA) or 10% charcoal-stripped serum (LNCaP-Abl) supplemented with 2 mM of L-glutamine and 1×antibiotic/antimycotic (Gemini Bio-Products, Sacramento, CA) at 37° C. in 5% CO2. Human prostate epithelial cell RWPE1 was obtained from ATCC and cultured in keratinocyte serum-free medium (Thermo Fisher Scientific, Waltham, MA) at 37° C. in 5% CO2. Cells were authenticated by human short tandem repeat profiling at the MSK Integrated Genomics Operation Core. Patient-derived human prostate cancer organoids were cultured as described. Gao et al., Cell 159:176-87 (2014).
(§3) Cell Proliferation Assay by MTT, BrdU and Crystal Violet. For MTT assay, cells were plated at 2.5×10^3 per well in 96-well plates in complete media (10% FBS) or media supplemented with 10% charcoal-stripped serum. Cells were either treated with DMSO or with indicated inhibitors. After indicated times, cells were incubated in 0.5 mg/mL MTT (Invitrogen) for 1 hour at 37° C. MTT crystals were dissolved in isopropanol and absorbance was measured in a BioTek plate reader at […] and represented graphically.

[3] = system: MSK-PCa1 organoid; assay: MTT growth of mCRPC organoids with PARPi; details: compared to benign organoid; 3 days (FIG. 6E)
Excerpt: as §1, §2, §3

[4] = system: RB1 knockdown LNCaP cells; assay: MTT cell growth with PARP inhibitors; details: RB1 knockdown vs control LNCaP cells; olaparib 3 μM, talazoparib 0.005 μM (FIG. 2E)
Description: (§4) Scr-CRISPR and BRCA2-CRISPR2 cells were also transfected with non-targeting shRNA (scr-Sh) for control of shRNA. RHoGDI served as the loading control. […] Equivalent volume of DMSO was used as placebo treatment. Cell growth was measured by MTT assay; SD, p-values were determined by Student's t-test. […] FIG. 2C (2nd and 3rd rows) show the immunofluorescence (400× magnification) of F-actin filament stained with phalloidin in indicated CRISPR/shRNA-infected LNCaP cells. Nuclei were stained with DAPI (blue). […] 5×10^3 indicated cells were plated on the top of Boyden chamber (see Example 1) in serum-free media; 10% serum in the bottom chamber was used as chemo-attractant. After 48 hours, cells in the lower side of the chamber were fixed, stained, and photographed (100× magnification). […] Nuclei were stained with DAPI (blue). […] The graphs show cell growth measured by MTT assay (±SD); P-values determined by Student's t-test. […] RNA sequencing was analyzed by Partek.
(§5) To generate BRCA2-RB1 knockout-knockdown LNCaP cells, parental LNCaP cells were first infected with lentivirus containing BRCA2 gRNA or scr gRNA. Pooled population of the stable cells were established by puromycin selection and analyzed by western blot and qPCR. BRCA2-knockout or scr LNCaP cells were infected with lentivirus containing RB1 shRNA followed by hygromycin selection. BRCA2-knockout or scr (gRNA) LNCaP cells also infected with lentiviral non-targeting shRNA (scr-shRNA) were used as control. Cells within 4-10 passages after stable selection were used for the following experiments.
as §3

[5] = system: LNCaP-BRCA2-RB1 cells; assay: MTT cell growth with PARP inhibitors; details: LNCaP-BRCA2-RB1 vs BRCA2-null LNCaP; olaparib 3 μM, talazoparib 0.005 μM (FIG. 2E)
Description: as §4, §5, §3

[6] = system: 22RV1 cells; assay: MTT cell growth with PARPi or cisplatin; details: 22RV1, BRCA2 T3033Nfs*11, RB1-wt; cisplatin 500 nM, talazoparib 5 nM, 6 days (FIG. 11D)
Description: as §3, with “The ploidy of each cell line is indicated. […] Equivalent volume of DMSO was used as placebo treatment. Cell growth was measured by MTT assay (see Example 1); SD, each point indicates the MTT count of each well of 96-well plate, P-values determined by Student's t-test. **P<0.01, ****P<0.0001. […] Cell Proliferation” for “Cell Proliferation”

[7] = system: PC3M cells; assay: MTT cell growth with PARPi or cisplatin; details: talazoparib 5 nM, 6 days, P<0.0001 (FIG. 11D)
Description: as §3, with “The ploidy of each cell line is indicated. […] Equivalent volume of DMSO was used as placebo treatment. Cell growth was measured by MTT assay (see Example 1); SD, each point indicates the MTT count of each well of 96-well plate, P-values determined by Student's t-test. **P<0.01, ****P<0.0001. […] Cell Proliferation” for “Cell Proliferation”

Cn1ncnc1[C@H]1c2n[nH]c(=O)c3cc(F)cc(c23)N[C@@H]1c1ccc(F)cc1 [talazoparib]
sensitivity (cell growth, MTT) [1]: more sensitivity
organoid growth (MTT) [2]: growth reduction
organoid growth (MTT) [3]: growth reduction
inhibitory effect on cell growth (MTT) [4]: could not be detected
cell growth inhibition (MTT) [5]: more cell growth inhibition
sensitivity (cell growth, MTT) [6]: modest sensitivity
growth inhibition compared to olaparib (2.5 μM) [7]: more growth inhibition
